# Test results published in patent US20240166596A1, “SULFAMOYL BENZENE DERIVATIVES AND USES THEREOF” (AphioTx Inc., priority 2021, published 2024).
# “Also recorded” adds a separate entry of the source.
# Test system: Long Evans rats
# Experiment: Morphine self-administration, extinction and cue-induced reinstatement (opioid seeking)
# Assay type: in vivo
# Method: Adult (8 to 10 weeks old at the beginning of the experiments) wild-type male and female Long Evans rats (250-350g) were used. Animals were group housed prior to jugular vein catheter implant surgery with two to three animals per cage on a 12/12 hours dark/light cycle (lights on at 7:00 AM). Rats were acclimated to the animal facility holding rooms for at least 7 days before any manipulation. After catheter implantation, animals were single housed to prevent damage to the harnesses. All experiments were performed during the light cycle. Rats received food and water ad libitum until 2 days prior to starting the behavioral studies, when food restriction (16 g of rat chow per day) started and continued until the end of the experiments.
# All surgeries were performed under isoflurane (2.5/3 MAC) anesthesia using sterile aseptic techniques. For intravenous (IV) self-administration (SA), animals were implanted with sterile catheters in the right jugular vein and connected to a harness placed over the torso. The harness allowed for minimal stress while connecting and disconnecting the animal from infusion lines. The catheter was kept patent by daily infusions of gentamicin mixture (1.33 mg/ml).
# Equipment: Rat self-administration was conducted using operant-conditioning chambers (Med Associates) equipped with two retractable levers with a food magazine connected to a food pellet dispenser between them. Two cue lights were positioned above the levers, and one house light was positioned on the top left-hand wall. During self-administration sessions both levers (correct and incorrect lever) were extended out with white cue light turned on only above the correct lever. […]
# All experiments were performed at least twice, including each treatment condition to prevent an unspecific day/condition effect. […] All data are expressed as mean±SEM. […] After assessing the normality of sample data using Shapiro-Wilk test, statistical significance was determined by two-way repeated-measures ANOVA followed by two-tailed Sidak post hoc test. Data was analyzed using GraphPad Prism 8.1.0.
structure (smiles),measurement,setting,value
"CCCN(CCC)S(=O)(=O)c1ccc(C(O)(C(F)(F)F)C(F)(F)F)cc1 [Compound 1, 4-(1,1,1,3,3,3-hexafluoro-2-hydroxypropan-2-yl)-N,N-dipropylbenzenesulfonamide]",Extinction of morphine seeking behaviour (lever pressing),"0.5 mg/kg i.p. 1 hour prior to each extinction session, vs saline",did not show a reduction in time required for extinction; also recorded: no difference was observed
same,"Lever presses (morphine seeking) during reinstatement, all animals","0.5 mg/kg i.p. during extinction, before reinstatement, or both, vs saline",significant reduction in the number of lever presses; also recorded: rescued
same,"Lever presses (morphine seeking) during reinstatement, female rats","0.5 mg/kg i.p. during extinction, first day of reinstatement, or both, females",decreased the number of lever presses; also recorded: reversed
